Experimental data reported in ChEMBL document CHEMBL5120957, “SARS-CoV-2: Novel Therapeutic Approaches for Diagnosis and Treatment” (ACS Med Chem Lett, 2022).

What follows are compounds tested against Integrin alpha-V/beta-6 (Homo sapiens, UniProt P06756+P18564) (assay: Inhibition of recombinant human alphavbeta6 integrin incubated for 2 hrs by microplate reader assay).
Assay type: protein-complex assay

Integrin alpha-V/beta-6, sequence (P06756 31-889 limits assumed): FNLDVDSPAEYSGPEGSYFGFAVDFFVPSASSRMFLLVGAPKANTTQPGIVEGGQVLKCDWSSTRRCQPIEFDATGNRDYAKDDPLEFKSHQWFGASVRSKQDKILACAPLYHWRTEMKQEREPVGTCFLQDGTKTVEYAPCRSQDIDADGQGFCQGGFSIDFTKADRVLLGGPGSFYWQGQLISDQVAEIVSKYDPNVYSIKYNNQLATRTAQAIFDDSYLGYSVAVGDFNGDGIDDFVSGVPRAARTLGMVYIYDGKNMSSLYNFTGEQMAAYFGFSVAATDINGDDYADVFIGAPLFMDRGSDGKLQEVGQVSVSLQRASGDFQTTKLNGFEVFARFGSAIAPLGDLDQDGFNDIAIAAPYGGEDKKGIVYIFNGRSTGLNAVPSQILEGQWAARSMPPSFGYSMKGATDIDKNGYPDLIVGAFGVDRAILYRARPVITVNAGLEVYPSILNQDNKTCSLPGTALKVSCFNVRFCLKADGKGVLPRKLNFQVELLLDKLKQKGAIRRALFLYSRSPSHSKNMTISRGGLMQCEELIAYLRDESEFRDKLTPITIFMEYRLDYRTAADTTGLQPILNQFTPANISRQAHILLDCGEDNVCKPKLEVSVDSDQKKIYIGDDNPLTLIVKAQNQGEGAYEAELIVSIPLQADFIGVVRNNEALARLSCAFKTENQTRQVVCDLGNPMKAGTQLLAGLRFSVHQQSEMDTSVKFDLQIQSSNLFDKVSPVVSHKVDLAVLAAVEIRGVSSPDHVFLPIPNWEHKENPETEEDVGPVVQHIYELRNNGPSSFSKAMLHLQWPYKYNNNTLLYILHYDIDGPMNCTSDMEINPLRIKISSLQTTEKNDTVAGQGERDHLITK
Integrin alpha-V/beta-6, sequence (P06756 891-1048 limits assumed): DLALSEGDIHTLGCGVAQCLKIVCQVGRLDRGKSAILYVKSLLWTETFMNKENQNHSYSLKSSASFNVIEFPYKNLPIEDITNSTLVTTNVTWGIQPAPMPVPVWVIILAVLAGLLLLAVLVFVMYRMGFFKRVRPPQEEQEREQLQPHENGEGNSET
Integrin alpha-V/beta-6, sequence (P18564 22-788 limits assumed): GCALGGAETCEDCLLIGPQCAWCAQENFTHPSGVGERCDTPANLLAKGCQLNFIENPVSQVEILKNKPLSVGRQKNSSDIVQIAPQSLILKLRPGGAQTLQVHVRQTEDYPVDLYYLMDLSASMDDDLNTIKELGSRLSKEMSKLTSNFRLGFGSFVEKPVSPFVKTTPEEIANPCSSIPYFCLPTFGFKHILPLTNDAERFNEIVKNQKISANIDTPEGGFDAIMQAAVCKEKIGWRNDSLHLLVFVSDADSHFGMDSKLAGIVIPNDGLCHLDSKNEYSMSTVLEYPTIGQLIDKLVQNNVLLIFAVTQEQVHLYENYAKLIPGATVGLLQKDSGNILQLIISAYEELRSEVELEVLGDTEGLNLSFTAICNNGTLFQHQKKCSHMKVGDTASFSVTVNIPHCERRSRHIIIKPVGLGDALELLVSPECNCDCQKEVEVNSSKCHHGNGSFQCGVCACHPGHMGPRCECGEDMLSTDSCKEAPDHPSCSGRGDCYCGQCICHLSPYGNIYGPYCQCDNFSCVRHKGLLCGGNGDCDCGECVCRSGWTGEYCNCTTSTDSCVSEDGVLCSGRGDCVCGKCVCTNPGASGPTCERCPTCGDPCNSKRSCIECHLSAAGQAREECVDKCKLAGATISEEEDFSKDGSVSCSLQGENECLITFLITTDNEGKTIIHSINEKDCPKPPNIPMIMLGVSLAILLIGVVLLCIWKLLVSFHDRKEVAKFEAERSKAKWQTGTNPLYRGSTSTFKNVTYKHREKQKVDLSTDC

| Compound | IC50 [nM] |
| --- | --- |
| COCCN(CCCCc1ccc2c(n1)NCCC2)CC[C@H](Nc1ncnc2ccccc12)C(=O)O [BEXOTEGRAST] | < 50 |
| COCCN(CCCCc1ccc2c(n1)NCCC2)CC[C@H](Nc1ncnc2cc(F)ccc12)C(=O)O | < 50 |
| CO[C@H](C)CN(CCCCc1ccc2c(n1)NCCC2)CC[C@H](Nc1ncnc2ccccc12)C(=O)O | < 50 |
| COCCN(CCCCc1ccc2c(n1)NCCC2)CC[C@H](Nc1cc(-n2cccn2)ncn1)C(=O)O | < 50 |
| COCCN(CCCCc1ccc2c(n1)NCCC2)CC[C@H](Nc1ncnc2cc(C(F)(F)F)ccc12)C(=O)O | 50 |
| O=C(O)[C@H](CCN(CCCCc1ccc2c(n1)NCCC2)CCC(F)F)Nc1ncnc2ccccc12 | < 50 |
